Source: US20260216169A1, “NAPHTHYLAMIDE COMPOUND, AND PREPARATION METHOD THEREFOR AND USE THEREOF” (SHENZHEN CHIPSCREEN BIOSCIENCES CO., LTD., priority 2022, published 2026)
pIC50: −log10 of the molar value.

Key:
VEGFR2 = biological target: T1, VEGFR2 (Homo sapiens, UniProt P35968); assay: HTRF KinEASE test against VEGFR2, reported as relative selectivity IC50-VEGFR2/IC50-Aurora B; type: biochemical; details: ratio of IC50 against VEGFR2 to IC50 against Aurora B
T1 construct: purchased Carna 08-191
Method: (§1) Preparation of working solutions of compounds in DMSO with gradient concentrations: 0.2 mM solutions of the compounds in DMSO were prepared and serially diluted with DMSO to form working solutions with 10 gradient concentrations (corresponding to final compound concentrations of 1000 nM, 300 nM, 100 nM, 30 nM, 10 nM, 3 nM, 1 nM, 0.3 nM, 0.1 nM, and 0.03 nM in the reaction system).
(§2) Tests of inhibitory activity against Aurora B kinase and VEGFR2: The half maximal inhibitory concentrations (IC50) of the compounds against Aurora B kinase and VEGFR2 were determined using HTRF KinEASE-TK kit (Cisbio, Cat #62TKOPEC) and HTRF KinEASE-STK kit (Cisbio, Cat #61ST2BLE). A 2× kinase & Metal solution (Aurora B/Cat #05-102 and VEGFR2/Cat #08-191, both purchased from Carna) and a 2× Substrate & ATP solution (for Aurora B and VEGFR2, substrates S2 and TK were used, respectively) were prepared according to the kit instructions. The working solutions of the test compounds with gradient concentrations were added to a 384-well plate at 25 nL/well, and 2.5 μL of the 2× kinase & Metal solution was added to each well. The plate was sealed with a plate-sealing film, well shaken, centrifuged, and then incubated at 25° C. for 10 min. Then, the 2× Substrate & ATP solution was added at 2.5 μL/well, and the plate was incubated again at 25° C. for 30 min. Finally, a 2× XL665 & Antibody kinase detection reaction solution was added at 5 μL/well. After the plate was incubated at 25° C. for 60 min, the fluorescence signals at wavelengths of 665 nm and 620 nm in each well were measured by a microplate reader.
(§3) The 665 nm/620 nm fluorescence signal ratio (X) of each well was calculated. With the compound-free well as a negative control (Y) and the enzyme-free well as a positive control (Z), the inhibition rate of the compound in each test well against the corresponding kinase was calculated using the formula: inhibition (%)=100%−(X−Z)/(Y−Z)×100%, and the half maximal inhibitory concentration (IC50) of each compound against the corresponding kinase was calculated by GraphPad 7.0 software.

Molt-4 cells = assay: Effects on tumor cell cycle, PI staining and flow cytometry; type: cell-based, human; details: 48 h
Text: When the activity of Aurora B kinase is inhibited in tumor cells, the arrangement and separation of chromosomes are blocked, leading to cytokinesis failure and the formation of tetraploid or polyploid cells. Moreover, severe genomic instability and mitotic catastrophe result in apoptosis. The intracellular DNA content can be mapped with propidium iodide (PI), a fluorescent dye that specifically binds to nucleic acid, so that cell states can be distinguished into sub-G0/G1 (apoptosis), G0/G1, S, G2/M (tetraploid), and polyploid states.
Experimental process: Molt-4 cells (human acute lymphoblastic leukemia cells, CRL-1582) were purchased from the American Type Culture Collection (ATCC). Molt-4 cells in the logarithmic growth phase were collected from suspension culture and counted. The cells were seeded into a 6-well plate at 10^6 cells/well and cultured overnight under normal conditions. The test compounds were prepared as 1 mM and 3 mM solutions in DMSO, and the solutions in DMSO were diluted 50-fold with culture medium. Finally, the above solutions were added to the culture system in a volume ratio of 1:19, achieving a final compound concentration of 1 μM or 3 μM in each well. After 48 h of incubation, the cells were collected by centrifugation. Each cell sample was resuspended in 300 μL of PBS, and the suspension was added dropwise to 700 μL of pre-cooled absolute ethanol. Then the mixture was gently inverted several times for thorough mixing to complete cell collection and fixation. The samples were left to stand at 4° C. for more than 12 h and then analyzed by flow cytometry.
A working dye solution was prepared by homogeneously mixing PBS, a 10 mg/mL PI stock solution, and a 10 mg/mL RNase A solution in a ratio of 1000:5:2. The fixed cell samples were centrifuged at 4° C. and 1000 rpm for 10 min. The supernatants were completely removed using a pipette, and the cells were washed twice with PBS and resuspended in the above working dye solution at […]. After incubation in a dark place at 37° C. for 30 min, the cells were filtered using a 200-mesh stainless steel strainer, and the filtrate was loaded onto a flow cytometer for cell cycle analysis (10,000 cells counted per sample).
Histograms showing DNA contents were obtained from the flow cytometry analysis, and the cell cycle distribution in each sample was analyzed using the flow cytometry data analysis software FlowJo. The mean (X) and standard deviation (SD) were calculated, and data were represented as X±SD. The apoptosis and the proportions of tetraploid and polyploid cells after Molt-4 cells were treated with different doses of the test compounds are shown in Table 3 below.

[1] = Brain permeation assay in mice; type: in vivo; details: B/C, mouse, oral; female mice, 5 mg/kg intragastric, 4 h after administration; read-out: Brain permeation (ratio of compound concentration in brain tissue to concentration in plasma)
Method: The objective of this example was to test whether the compounds of the present disclosure are able to cross the blood-brain barrier (BBB). The compounds of the present disclosure were dissolved in a vehicle containing 5% dimethyl sulfoxide, 60% 1,3-propanediol, and 35% purified water, and intragastrically administered to B/C female mice aged 6 weeks (purchased from Guangdong Medical Laboratory Animal Center) at 5 mg/kg. The animals were sacrificed 4 h after the administration, and blood and brain tissue samples were collected. The blood samples were anticoagulated with K2-EDTA and centrifuged at 5000 rpm for 5 min to separate plasma. The brain tissue samples were accurately weighed and homogenized with a certain amount of phosphate-buffered saline (PBS) solution, and the biological samples were stored at −80° C. before analysis. After sample extraction, the compound concentration was determined using a liquid chromatography-tandem mass spectrometry (LC-MS/MS) system. Brain permeation was defined as the ratio of the compound concentration in brain tissue to the concentration in plasma.

PANC02 cells = assay: Anti-tumor efficacy in PANC02 mouse pancreatic cancer graft tumor model; type: in vivo, C57BL/6 mice; details: for Mean tumor volumes (mm^3 ± SEM), Day 9 / Tumor volume inhibition rate (% TGI), Day 9: 10 mg/kg/day intragastric once daily; for Mean tumor volumes (mm^3 ± SEM), Day 0: 10 mg/kg/day intragastric, grouping and administration Day 0
Text: A mouse PANC02 pancreatic cancer graft tumor model was constructed: the experimental animals were C57BL/6 mice (female, 6 weeks old), the tumor cells were PANC02 cells (mouse pancreatic cancer cells), and the cell culture medium was a DMEM culture medium containing 1% double antibiotic and 10% fetal bovine serum. PANC02 cells in the logarithmic growth phase and in good condition were collected and inoculated subcutaneously into the left flank of C57BL/6 mice at a concentration of 0.9×10^6 cells/0.2 mL. The long diameters (a, mm) and short diameters (b, mm) of the tumors were measured using a vernier caliper, and tumor volume (V, mm^3) was calculated using the formula: V=½a×b^2. Tumor volume was measured 2-3 times weekly using the vernier caliper. When the mean tumor volumes of the mice reached 190 mm^3 or above, the mice were divided into 4 groups of 8 and dosed, and the day of grouping was represented by day 0. The groups were as follows: a solvent control group (0.2% aqueous solution of CMC-Na), a compound I-9 group (10 mg/kg/day), a control molecule 01 (chiauranib) group (10 mg/kg/day), and a control molecule 02 group (10 mg/kg/day). All four groups received intragastric administration once daily for consecutive days, and the experiment was terminated on the day of the last dose.
The tumor volume results were represented as mean and standard error (Mean±S.E.M). Intergroup comparisons were performed using the Mann Whitney test. If p<0.05, the difference is considered to be statistically significant. The tumor volume inhibition rate (TGI) was calculated using the formula: TGI (%)=[1−(Ti−T0)/(Vi−V0)]×100% (Ti: mean tumor volume of the treatment group on day i of administration; TO: mean tumor volume of the treatment group on day 0 of administration; Vi: mean tumor volume of the solvent control group on day i of administration; V0: mean tumor volume of the solvent control group on day 0 of administration).

Aurora B kinase [2] = biological target: T2, Aurora B kinase (Homo sapiens, UniProt Q96GD4); assay: HTRF KinEASE test of inhibitory activity against Aurora B kinase; type: biochemical; set-up: purchased Carna 05-102; details: Carna kinase, substrate S2
Method: as §1, §2, §3
Target sequence in this assay (Q96GD4 whole entry): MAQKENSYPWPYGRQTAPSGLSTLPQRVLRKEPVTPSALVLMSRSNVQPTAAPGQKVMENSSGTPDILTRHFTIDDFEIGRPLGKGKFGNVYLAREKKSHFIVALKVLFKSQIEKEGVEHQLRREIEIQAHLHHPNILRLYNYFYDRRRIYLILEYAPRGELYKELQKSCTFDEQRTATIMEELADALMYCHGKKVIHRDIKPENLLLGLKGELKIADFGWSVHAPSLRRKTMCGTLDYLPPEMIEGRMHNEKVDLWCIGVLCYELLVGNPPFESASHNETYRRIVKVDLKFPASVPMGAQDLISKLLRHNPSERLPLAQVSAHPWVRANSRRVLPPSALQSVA
Target sequence in this assay (Q9NQS7 803-916 partner limits assumed): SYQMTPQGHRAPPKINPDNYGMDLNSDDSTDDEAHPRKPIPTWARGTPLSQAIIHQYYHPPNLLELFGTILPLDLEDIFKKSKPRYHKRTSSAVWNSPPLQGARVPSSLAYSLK

Aurora B kinase [3] = biological target: T2, Aurora B kinase; assay: In vitro cytological assays of Aurora B kinase inhibition; type: cell-based; set-up: dose or concentration left out as unconfirmed
Target sequence in this assay (Q96GD4 whole entry): as the sequence (Q96GD4 whole entry) above

[4] = human, 65-mg treatment group, phase I; cited from earlier work

T1 sequence (P35968 790-1356 limits assumed): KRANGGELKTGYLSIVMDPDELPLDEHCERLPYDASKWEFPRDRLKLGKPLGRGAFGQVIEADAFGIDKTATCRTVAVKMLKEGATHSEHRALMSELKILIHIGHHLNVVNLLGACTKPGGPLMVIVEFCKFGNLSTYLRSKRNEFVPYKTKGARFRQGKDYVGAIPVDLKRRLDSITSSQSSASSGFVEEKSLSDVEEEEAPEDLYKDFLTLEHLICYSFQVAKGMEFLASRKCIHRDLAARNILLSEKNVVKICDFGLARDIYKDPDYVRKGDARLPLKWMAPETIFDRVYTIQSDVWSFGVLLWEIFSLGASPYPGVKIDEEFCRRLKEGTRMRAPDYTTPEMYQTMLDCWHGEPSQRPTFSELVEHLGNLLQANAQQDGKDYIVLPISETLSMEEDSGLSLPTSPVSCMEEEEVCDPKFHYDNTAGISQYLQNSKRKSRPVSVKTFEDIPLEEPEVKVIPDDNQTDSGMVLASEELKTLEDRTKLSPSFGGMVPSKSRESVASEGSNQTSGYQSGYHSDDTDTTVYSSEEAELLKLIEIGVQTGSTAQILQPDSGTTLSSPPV

Selectivity for Aurora B IC50-VEGFR2/IC50-Aurora B (VEGFR2)	Kp at 4 h [1]	pIC50 (Aurora B kinase [2])	SMILES	Apoptosis (%) DNA < 2N (Molt-4 cells; dose 1 μM) [%]	Polyploid (%) DNA > 4N (Molt-4 cells; dose 1 μM) [%]	Tetraploid (%) DNA = 4N (Molt-4 cells; dose 1 μM) [%]	Total (apoptosis + tetraploid + polyploid) (Molt-4 cells; dose 1 μM)	Apoptosis (%) DNA < 2N (Molt-4 cells; dose 3 μM) [%]	Polyploid (%) DNA > 4N (Molt-4 cells; dose 3 μM) [%]	Tetraploid (%) DNA = 4N (Molt-4 cells; dose 3 μM) [%]	Total (apoptosis + tetraploid + polyploid) (Molt-4 cells; dose 3 μM)	Mean tumor volumes (mm^3 ± SEM), Day 9 (PANC02 cells) [mm^3]	Tumor volume inhibition rate (% TGI), Day 9 (PANC02 cells) [%]	Mean tumor volumes (mm^3 ± SEM), Day 0 (PANC02 cells) [mm^3]	other results
17.57	0.6	8.75	COc1ccc2c(Oc3ccc4c(C(=O)Nc5ccc(F)c(F)c5N)cccc4c3)ccnc2c1 [Compound I-9]	24.60 ± 8.06	55.15 ± 15.20	6.07 ± 7.25	85.82	21.35 ± 5.87	56.10 ± 12.02	5.39 ± 6.10	82.84	145.9 ± 38.5	114.0	193.9 ± 38.5	Tumor volume compared with solvent control group (PANC02 cells; Day 9, Mann Whitney test, p<0.001): significantly reduced tumor volumes; Tumor volume compared with control molecule 01 (chiauranib) group (PANC02 cells; Day 9, Mann Whitney test, p<0.01): significantly reduced tumor volumes; Tumor volume compared with control molecule 02 group (PANC02 cells; Day 9, Mann Whitney test, p<0.05): significantly reduced tumor volumes
1.54	0.28	7.97	COc1ccc2c(Oc3ccc4c(C(=O)Nc5ccccc5N)cccc4c3)ccnc2c1 [Control molecule 01, chiauranib, reference compound]	10.23 ± 0.67	3.73 ± 2.95	14.80 ± 6.51	28.76	16.40 ± 6.65	6.40 ± 5.66	16.25 ± 8.13	39.05	278.4 ± 35.6	74.6	191.5 ± 33.9	Tumor volume inhibition rate (% TGI), Day 9 (PANC02 cells; listed as control molecule 01): 74.6%; Inhibitory activity against Aurora B kinase (Aurora B kinase [3]): relatively weak inhibitory activity; Dose-limiting toxicity (DLT) [4]: grade 3 hypertension
4.16	0.27	8.68	COc1ccc2c(Oc3ccc4c(C(=O)Nc5ccc(F)cc5N)cccc4c3)ccnc2c1 [Control molecule 02, reference compound]	10.07 ± 1.18	7.94 ± 3.77	18.05 ± 0.35	36.06	23.80 ± 2.26	55.70 ± 1.41	8.40 ± 4.96	87.90	299.3 ± 68.2	68.9	192.7 ± 36	Tumor volume inhibition rate (% TGI), Day 9 (PANC02 cells; listed as control molecule 02): 68.9%
